Laboratory results as given in patent EP0551953A2, “17-(Pyridazine-N-oxide)-substituted steroidal compounds active on the cardiovascular system” (ZAMBON GROUP S.p.A., priority 1992, dated 1993).
Where two headings read alike, the source gives them in different places.

Test system: alpha₃ isoform of rat (Na⁺+K⁺)-ATPase
Assay: Displacement of [3H]-ouabain, alpha3 isoform, rat brain preparation
Type: binding
Source text: The activity of the compounds of formula II has been evaluated with the binding test on the alpha₁ and alpha₃ isoforms of rat (Na⁺+K⁺)-ATPase in rat kidney and rat brain, according to the method described by Noel F. et al., Biochemical Pharmacology, 40(12), pp 2611-2616, (1990) (see Example 2).
Evaluation of the interaction with the alpha₁ and alpha₃ isoforms of rat (Na⁺+K⁺)-ATPase
The method of Noel F. et al., Biochemical Pharmacology, 40(12), pp. 2611-2616, (1990) was used to evaluate the displacement of [³H]-ouabain in preparations of rat kidney and rat brain, containing various concentrations of nerifolin, 3beta-(alpha-L-tevetopyranosyloxy)-14-hydroxy-17beta-(4-pyridazil)-5beta,14beta-androstane (compound R), compound 5 and compound 6 and the corresponding genins, respectively, digitoxygenin, 3beta,14-dihydroxy-17beta-(4-pyridazil)-5beta,14beta-androstane (genin 1), 3beta,14-dihydroxy-17beta-(4-pyridazinyl-2-N-oxide)-5beta,14beta-androstane (genin 2) and 3beta,14-dihydroxy-17beta-(4-pyridazinyl-1-N-oxide)-5beta,14beta-androstane (genin 3).

[1] = selectivity index, alpha₁ (rat kidney) versus alpha₃ (rat brain)

Row | SMILES | K₁(alpha₁)/K₁(alpha₃) [1] | K₁(alpha₁)/K₁(alpha₃)
1 | CO[C@H]1[C@H](O)[C@H](O[C@H]2CC[C@@]3(C)[C@H](CC[C@@H]4[C@@H]3CC[C@]3(C)[C@@H](c5ccn[n+]([O-])c5)CC[C@]43O)C2)O[C@@H](C)[C@@H]1O [Compound 5, 3beta-(alfa-L-tevetopyranosyloxy)-14-hydroxy-17beta-(4-pyridazinyl-2-N-oxide)-5beta,14beta-androstane] | ≧1258 | 
2 | CO[C@H]1[C@H](O)[C@H](O[C@H]2CC[C@@]3(C)[C@H](CC[C@@H]4[C@@H]3CC[C@]3(C)[C@@H](c5cc[n+]([O-])nc5)CC[C@]43O)C2)O[C@@H](C)[C@@H]1O [Compound 6, 3beta-(alfa-L-tevetopyranosyloxy)-14-hydroxy-17beta-(4-pyridazinyl-1-N-oxide)-5beta,14beta-androstane] | ≧1000 | 
3 | CO[C@H]1[C@H](O)[C@H](O[C@H]2CC[C@@]3(C)[C@H](CC[C@@H]4[C@@H]3CC[C@]3(C)[C@@H](c5ccnnc5)CC[C@]43O)C2)O[C@@H](C)[C@@H]1O [Compound R, 3beta-(alpha-L-tevetopyranosyloxy)-14-hydroxy-17beta-(4-pyridazil)-5beta,14beta-androstane] | 63 | 
4 | C[C@]12CC[C@H](O)C[C@H]1CC[C@@H]1[C@@H]2CC[C@]2(C)[C@@H](C3=CC(=O)OC3)CC[C@]12O [Digitoxygenin, digitoxygenin] |  | 37
5 | C[C@]12CC[C@H](O)C[C@H]1CC[C@@H]1[C@@H]2CC[C@]2(C)[C@@H](c3ccnnc3)CC[C@]12O [Genin 1, 3beta,14-dihydroxy-17beta-(4-pyridazil)-5beta,14beta-androstane] | 96 | 
6 | CO[C@H]1[C@H](O)[C@H](O[C@H]2CC[C@@]3(C)[C@H](CC[C@@H]4[C@@H]3CC[C@]3(C)[C@@H](C5=CC(=O)OC5)CC[C@]43O)C2)O[C@@H](C)[C@@H]1O [Nerifolin, nerifolin] | 90 | 
